Reference: patent US6576647B2, “Pseudopolymorph of (—)-cis-2-(2-chlorophenyl)-5,7-dihydroxy-8[4R-(3S-hydroxy -1-methyl)piperidinyl]-4H-1-benzopyran-4-one” (Aventis Pharmaceuticals Inc., priority 2000, dated 2003)
“Also recorded” adds a separate entry of the source.

Key:
[1] = Hygroscopicity screening by Dynamic Water Vapor Sorption Analysis (DVS); assay type: physicochemical; conditions: for hygroscopicity assessment: conclusion from DVS weight gain, hydrochloride; for weight gain: 25° C. and 40° C.
Method: Hygroscopicity Screening—Comparison of Form I and Form II
Dynamic Vapor Sorption (DVS) Analysis Studies were Conducted on Form II Versus Form I.
Dynamic Water Vapor Sorption Analysis (DVS)
Form II was studied at 25° C. using a Surface Measurement Systems Dynamic Vapor Sorption DVS-1 analyzer. A sample in the range of about 14.8 mg was placed in a tared quartz sample holder at an initial ambient room humidity setting of about 48% Relative Humidity (RH). A total wet/dry nitrogen flow rate of 200 cc/min was used throughout the study. The following full cycle program was initiated: 30 min at the initial ambient RH, followed by settings of 0, 20, 40, 60, 80, 90, 95 and 98% RH, with exposure time at each humidity set point dependent upon dm/dt being less than 0.001% for 60 min. The maximum time allowed at any one humidity set point was 24 hours. For a full cycle, data collection took about 4 days to complete. After the full cycle the sample was maintained at the same RH as the initial ambient starting RH.
Form I was studied at 25° C. and 40° C. using the DVS-1 analyzer. Data was collected over two full cycles. Samples of 10.4 and 16.7 mg were placed into respective tared quartz sample holders at an initial ambient room humidity setting of about 46% RH and 33% RH, respectively. For this study, an additional 75% RH set point was used. For 2 full cycles, data collection took about 7 days at 25° C. and about 17 days at 40° C. to complete. After completion of each 2 cycle study, the samples were maintained at the same RH as the initial ambient starting RH.

[2] = Variable humidity X-ray powder diffraction (crystallinity versus relative humidity); assay type: physicochemical; conditions: variable humidity XRPD; hydrochloride
From the text: X-ray Powder Diffraction (XRPD) patterns were taken on a Scintag XDS 2000 θ/θ diffractometer operating with copper radiation at 45 kV and 40 mA, using a Kevex Psi Peltier-cooled silicon detector. Source slits of 2 and 4 mm, and detector slits of 0.5 and 0.3 mm were used for data collection. Form II samples were gently milled using an agate mortar and pestle for approximately one minute, placed in a platinum sample pan, and leveled using a glass microscope slide. Samples taken during or post hygroscopicity testing were not milled due to the limited amount of sample available. In each case, powder diffraction patterns were scanned from 2° to 42° 2θ at 1°/minute. Calibration of the XDS 2000 was verified using Silicon powder.
For variable relative humidity experiments, the larger capacity DVS-2 Surface Measurement Systems Dynamic Vapor Sorption analyzer was used. Using a flow rate of 500 cc/min, Form II was held at desired RH settings and sampled periodically for XRPD analysis. Unmilled material was placed in the platinum sample pan and leveled using a glass microscope slide prior to analysis using the above conditions.

additional weight gain ([1]; DVS, above 60% relative humidity, 25° C.)	weight gain ([1]; DVS, above 90% RH)	weight gain ([1]; DVS, through about 75% RH)	SMILES	hygroscopicity assessment [1]	crystallinity as the humidity is increased [2]
15-20%	–	–	CN1CC[C@H](c2c(O)cc(O)c3c(=O)cc(-c4ccccc4Cl)oc23)[C@H](O)C1.Cl (relative stereo) [Form II, (−)-cis-2-(2-chlorophenyl)-5,7-dihydroxy-8[4R-(3S-hydroxy-1-methyl)piperidinyl]-4H-1-benzopyran-4-one hydrochloride, reference compound]	hygroscopic	apparent decrease in crystallinity
–	about 30%	1-2%	CN1CC[C@H](c2c(O)cc(O)c3c(=O)cc(-c4ccccc4Cl)oc23)[C@H](O)C1.Cl (relative stereo) [Form I, (−)-cis-2-(2-chlorophenyl)-5,7-dihydroxy-8[4R-(3S-hydroxy-1-methyl)piperidinyl]-4H-1-benzopyran-4-one hydrochloride]	hygroscopic above 75% RH; also recorded: less hygroscopic than Form II	retains its crystallinity until extremely high relative humidity is reached
